From patent publication US20130338367A1, “PYRAZOLE DERIVATIVES AND PESTICIDES” (Nissan Chemical Industries, Ltd., priority 2011, published 2013)
Counter-ions that a name gives are not always drawn. Like-named read-outs stand apart in the source and are kept apart here.

Legend:
Format in all cases: in vivo
[1] = system: Bemisia argentifolii; assay: Insecticidal Test on Bemisia argentifolii; conditions: 120 h
Procedure: In styrol cups having an inner diameter of 7 cm, wet filter paper was laid, and kidney bean leaves cut to 3 cm were laid on the paper. 10% emulsifiable concentrates (or 10% wettable powders) of compounds of the present invention were diluted with water containing a spreader to obtain 500 ppm solutions. 2.5 ml of the solutions were sprayed from a rotary spray tower into the styrol cups (2.5 mg/cm^2). The leaves were dried in air, and adults of Bemisia argentifolii were released in the cups. The cups were closed and placed in an incubator at 25° C. 5 Days after, dead insects were counted, and the mortality was calculated by using the same equation as in Test Example 1. The test was carried out in duplicate.

[2] = system: Nilaparvata lugens; assay: Insecticidal Test on Nilaparvata lugens; conditions: 144 h
Procedure: 10% emulsifiable concentrates (or 10% wettable powders) of compounds of the present invention were diluted with water containing a spreader to obtain 500 ppm solutions. Rice sheaths were soaked in the solutions for about 10 seconds, dried in air and put in test tubes. In each tube, five 2nd-instar nymphs of Nilaparvata lugens were released, and the tubes were capped with sponge and placed in an incubator at 25° C. 6 Days after, dead insects were counted, and the mortality (%) (the number of dead insects÷the number of released insects×100) was calculated. The test was carried out in duplicate.

[3] = system: Myzus persicae; assay: Insecticidal Test on Myzus persicae; conditions: foliar, 144 h
Procedure: (§1) Wet absorbent cotton was laid on glass dishes having an inner diameter of 3 cm, and covered with leaves of Canarium album cut into circles of the same diameter, and 4 apterous adults of Myzus persicae were released. After a day, 10% emulsifiable concentrates (or 10% wettable powders) of compounds of the present invention were diluted with water containing a spreader to obtain 500 ppm solutions, and the solution were sprayed from a rotary spray tower (2.5 mg/cm^2). The dishes were covered with lids and placed in an incubator at 25° C. 6 Days after, dead insects were counted, and the mortality was calculated by using the same equation as in Test Example 1. The test was carried out in duplicate.

[4] = system: Aphis gossypii; assay: Insecticidal Test on Aphis gossypii; conditions: foliar, 144 h
Procedure: as §1, with “cucumber” for “Canarium album”, “Aphis gossypii” for “Myzus persicae”

[5] = system: Myzus persicae; assay: Soil Irrigation Test on Myzus persicae; conditions: 144 h, 100 ppm solution, 10 ml soil irrigation of cabbage seedlings, greenhouse, 6 days after release of insects
Procedure: 10% emulsifiable concentrates of compounds of the present invention were diluted with tap water to obtain 100 ppm solutions. The soil around the bases of cabbage seedlings (at the 2.5 true leaf stage) planted in plastic cups was irrigated with 10 ml of the solutions, and the cups were placed in a greenhouse. One day after the irrigation, adults of Myzus persicae were released at a ratio of 20 insects per seedling, and the seedlings were incubated in the greenhouse. 6 Days after the release of the insects, living insects were counted, and the control value was calculated from the following equation.
Control value (%)={1−(Cb×Tai)/(Cai×Tb)}×100
Cb: the number of insects in a non-treated area before treatment
Cai: the final number of living insects in a non-treated area
Tb: the number of insects in a treated area before treatment
Tai: the final number of living insects in a treated area

[6] = 500 ppm solution sprayed on kidney bean leaves, adults, 25° C., 5 days after, read-out: mortality
[7] = 500 ppm solution, rice sheaths soaked, 2nd-instar nymphs, 25° C., 6 days after, read-out: mortality (%)
[8] = 500 ppm solution sprayed, apterous adults on leaf discs, 25° C., 6 days after, read-out: mortality
[9] = 500 ppm solution sprayed, apterous adults on cucumber leaf discs, 25° C., 6 days after, read-out: mortality

`CN(C(=O)OC(C)(C)C)c1cn(-c2cccnc2)nc1Cl` [1-037, tert-butyl 3-chloro-1-(pyridin-3-yl)-1H-pyrazol-4-yl(methyl)carbamate] gave a mortality at 500 ppm [1] of no less than 90%.

With `C=CC(=O)N(CC)c1cn(-c2cccnc2)nc1Cl` [1-152, N-{3-chloro-1-(pyridin-3-yl)-1H-pyrazol-4-yl}-N-ethylacrylamide] the mortality at 500 ppm [1, 6] was no less than 90%.

`FC(F)(F)CNc1cn(-c2cccnc2)nc1Cl` [B-012, 3-chloro-1-(pyridin-3-yl)-N-(2,2,2-trifluoroethyl)-1H-pyrazole-4-amine] was tested, and the mortality at 500 ppm [2, 7] was no less than 90%.

`O=C1CCCN1c1cn(-c2cccnc2)nc1Cl` [1-132, 1-{3-chloro-1-(pyridin-3-yl)-1H-pyrazol-4-yl}pyrrolidin-2-one] showed a mortality at 500 ppm [3, 8] of no less than 90%.

`C#CCNc1cn(-c2cccnc2)nc1Cl` [B-008, 3-chloro-N-(prop-2-ynyl)-1-(pyridin-3-yl)-1H-pyrazole-4-amine] was tested, and the mortality at 500 ppm [4, 9] was no less than 90%, the mortality at 500 ppm [2, 7] was no less than 90% and the mortality at 500 ppm [3, 8] was no less than 90%.

For `CSCCC(=O)N(C)c1cn(-c2cccnc2)nc1Cl` [1-038, N-{3-chloro-1-(pyridin-3-yl)-1H-pyrazol-4-yl}-N-methyl-3-(methylthio)propanamide], the pest or weed control at 100 ppm [5] was no less than 90%.

`CSCCNc1cn(-c2cccnc2)nc1Cl` [C-002, 3-chloro-N-{2-(methylthio)ethyl}-1-(pyridin-3-yl)-1H-pyrazole-4-amine] gave a mortality at 500 ppm [2, 7] of no less than 90% and a mortality at 500 ppm [3, 8] of no less than 90%.

`CCN(C(=O)C(CSC)OC)c1cn(-c2cccnc2)nc1Cl` (stereo not drawn) [1-160, N-{3-chloro-1-(pyridin-3-yl)-1H-pyrazol-4-yl}-N-ethyl-2-methoxy-3-(methylthio)propanamide] was tested, and the pest or weed control at 100 ppm [5] was no less than 90%.

`CCNc1cn(-c2cccnc2)nc1C(F)(F)F` [B-018, N-ethyl-1-(pyridin-3-yl)-3-(trifluoromethyl)-1H-pyrazole-4-amine] was tested, and the mortality at 500 ppm [2, 7] was no less than 90% and the mortality at 500 ppm [3, 8] was no less than 90%.

Compound `Nc1cn(-c2cccnc2)nc1Cl` [B-021, 3-chloro-1-(pyridin-3-yl)-1H-pyrazole-4-amine] has a mortality at 500 ppm [2, 7] of no less than 90%.

`Cc1c(NC(=O)OC(C)(C)C)cnn1-c1cccnc1` [5-001, tert-butyl 5-methyl-1-(pyridin-3-yl)-1H-pyrazol-4-ylcarbamate] was tested, and the mortality at 500 ppm [4, 9] was no less than 90%.

In the case of `CCNc1cn(-c2cccnc2)nc1Cl` [A-004, 3-chloro-N-ethyl-1-(pyridin-3-yl)-1H-pyrazole-4-amine dihydrochloride], the mortality at 500 ppm [3, 8] was no less than 90%.

`CC(C)(C)OC(=O)Nc1cnn(C(C)(C)C)c1Cl` [F-001, tert-butyl 1-tert-butyl-5-chloro-1H-pyrazol-4-ylcarbamate] was tested, and the mortality at 500 ppm [2, 7] was no less than 90%.

`CC(C)(C)OC(=O)Nc1cn(-c2cccnc2)nc1Cl` [1-046, tert-butyl 3-chloro-1-(pyridin-3-yl)-1H-pyrazol-4-ylcarbamate] showed a mortality at 500 ppm [1, 6] of no less than 90%.

In the case of `CSCCCNc1cn(-c2cccnc2)nc1Cl` [C-001, 3-chloro-N-{3-(methylthio)propyl}-1-(pyridin-3-yl)-1H-pyrazole-4-amine], the mortality at 500 ppm [2, 7] was no less than 90% and the mortality at 500 ppm [3, 8] was no less than 90%.

`CCSC(C)C(=NOC)Nc1cn(-c2cccnc2)nc1Cl` (stereo not drawn) [1-356, N-{3-chloro-1-(pyridin-3-yl)-1H-pyrazol-4-yl}-2-(ethylthio)-N′-methoxypropanimidamide] showed a mortality at 500 ppm [2, 7] of no less than 90% and a mortality at 500 ppm [1, 6] of no less than 90%.

With `O=C1C(Br)CCCN1c1cnn(-c2cccnc2)c1` (stereo not drawn) [1-027, 3-bromo-1-{1-(pyridin-3-yl)-1H-pyrazol-4-yl}piperidin-2-one] the mortality at 500 ppm [3, 8] was no less than 90%.

For `CN(C(=O)OC(C)(C)C)c1cnn(C(C)(C)C)c1Cl` [G-002, tert-butyl 1-tert-butyl-5-chloro-1H-pyrazol-4-yl(methyl)carbamate], the mortality at 500 ppm [3] was no less than 90%.

`CNc1cn(-c2cccnc2)nc1Cl` [A-003, 3-chloro-N-methyl-1-(pyridin-3-yl)-1H-pyrazole-4-amine dihydrochloride] showed a mortality at 500 ppm [3, 8] of no less than 90%.

For `CN(C1=NCCS1)c1cn(-c2cccnc2)nc1Cl` [3-001, N-{3-chloro-1-(pyridin-3-yl)-1H-pyrazol-4-yl}-N-methyl-4,5-dihydrothiazole-2-amine], the mortality at 500 ppm [1, 6] was no less than 90%.

Work on `O=C(CCCCl)Nc1cn(-c2cccnc2)nc1Cl` [1-131, 4-chloro-N-{3-chloro-1-(pyridin-3-yl)-1H-pyrazol-4-yl}butanamide] yielded a mortality at 500 ppm [2, 7] of no less than 90%.

For `C=C1CCN(c2cn(-c3cccnc3)nc2Cl)C1=O` [1-133, 1-{3-chloro-1-(pyridin-3-yl)-1H-pyrazol-4-yl}-3-methylenepyrrolidin-2-one], the mortality at 500 ppm [3, 8] was no less than 90%.

In the case of `Cc1nn(-c2cccnc2)cc1N` [B-009, 3-methyl-1-(pyridin-3-yl)-1H-pyrazole-4-amine], the mortality at 500 ppm [2, 7] was no less than 90%.

In the case of `CCNc1cnn(C(C)(C)C)c1Cl` [H-001, 1-tert-butyl-5-chloro-N-ethyl-1H-pyrazole-4-amine hydrochloride], the mortality at 500 ppm [3, 8] was no less than 90%.

`CNc1cn(-c2cccnc2)nc1C` [A-001, N,3-dimethyl-1-(pyridin-3-yl)-1H-pyrazole-4-amine dihydrochloride] was tested, and the mortality at 500 ppm [4, 9] was no less than 90%.

`CCSC(C)C(=O)N(CC)c1c[nH]nc1Cl` (stereo not drawn) [J-001, N-(3-chloro-1H-pyrazol-4-yl)-N-ethyl-2-(ethylthio)propanamide] was tested, and the mortality at 500 ppm [3, 8] was no less than 90%.

Work on `CCN(C(=O)OC(C)(C)C)c1cn(-c2cccnc2)nc1Cl` [1-056, tert-butyl 3-chloro-1-(pyridin-3-yl)-1H-pyrazol-4-yl(ethyl)carbamate] yielded a mortality at 500 ppm [4] of no less than 90% and a mortality at 500 ppm [1] of no less than 90%.

Compound `CCCNc1cn(-c2cccnc2)nc1Cl` [B-006, 3-chloro-N-n-propyl-1-(pyridin-3-yl)-1H-pyrazole-4-amine] has a mortality at 500 ppm [4, 9] of no less than 90%, a mortality at 500 ppm [2, 7] of no less than 90% and a mortality at 500 ppm [3, 8] of no less than 90%.

`Cc1nn(-c2cccnc2)cc1N(C)C(=O)OC(C)(C)C` [1-012, tert-butyl methyl{3-methyl-1-(pyridin-3-yl)-1H-pyrazol-4-yl}carbamate] was tested, and the mortality at 500 ppm ([2]; in Oryza sativa) was no less than 90%, the mortality at 500 ppm [1] was no less than 90% and the mortality at 500 ppm [3] was no less than 90%.

With `Cc1nn(-c2cccnc2)cc1N` [A-009, 3-methyl-1-(pyridin-3-yl)-1H-pyrazole-4-amine dihydrochloride] the mortality at 500 ppm [4, 9] was no less than 90% and the mortality at 500 ppm [3, 8] was no less than 90%.

`CC(C)(C)OC(=O)Nc1cn(-c2cccnc2)nc1Br` [1-188, tert-butyl 3-bromo-1-(pyridin-3-yl)-1H-pyrazol-4-ylcarbamate] was tested, and the mortality at 500 ppm [2, 7] was no less than 90% and the mortality at 500 ppm [1, 6] was no less than 90%.

`CSCCC(=O)N(C)c1cn(-c2cccnc2)nc1C` [1-018, N-methyl-N-{3-methyl-1-(pyridin-3-yl)-1H-pyrazol-4-yl}-3-(methylthio)propanamide] gave a mortality at 500 ppm [2, 7] of no less than 90% and a mortality at 500 ppm [3, 8] of no less than 90%.

`CSC1CCCN(c2cnn(-c3cccnc3)c2)C1=O` (stereo not drawn) [1-028, 3-(methylthio)-1-{1-(pyridin-3-yl)-1H-pyrazol-4-yl}piperidin-2-one] gave a mortality at 500 ppm [4, 9] of no less than 90%, a mortality at 500 ppm [2, 7] of no less than 90% and a mortality at 500 ppm [1, 6] of no less than 90%. It also gave a mortality at 500 ppm [3, 8] of no less than 90%.

In the case of `CCSC(C)C(=O)N(CC)c1cnn(C(C)(C)C)c1Cl` (stereo not drawn) [1-001, N-(1-tert-butyl-5-chloro-1H-pyrazol-4-yl)-N-ethyl-2-(ethylthio)propanamide], the mortality at 500 ppm [4, 9] was no less than 90% and the mortality at 500 ppm [3, 8] was no less than 90%.

`CSCCCN(C(C)=O)c1cn(-c2cccnc2)nc1Cl` [1-153, N-{3-chloro-1-(pyridin-3-yl)-1H-pyrazol-4-yl}-N-{3-(methylthio)propyl}acetamide] showed a mortality at 500 ppm [4, 9] of no less than 90% and a mortality at 500 ppm [1, 6] of no less than 90%.
